Measurements: ChEMBL document CHEMBL1201861, “Genomics of Drug Sensitity in Cancer screening data, Wellcome Trust Sanger Institute”

How the values were obtained:
Test in all cases: cells
[1] = tested on: COLO-829; assay type: functional, cell-based, Homo sapiens; details: Homo sapiens, COLO-829
Description: SANGER: Inhibition of human COLO-829 cell growth in a cell viability assay.

[2] = tested on: CTV-1; assay type: functional, cell-based; details: Homo sapiens;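 further: growth inhibition of the cell line, read out with a cell viability assay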
Description: SANGER: Inhibition of human CTV-1 cell growth in a cell viability assay.

[3] = tested on: Ca-Ski; assay type: functional, cell-based; details: Homo sapiens;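 further: cell viability assay measuring inhibition of Ca-Ski cell growth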
Description: SANGER: Inhibition of human Ca-Ski cell growth in a cell viability assay.

[4] = tested on: Calu-3; assay type: functional, cell-based, Homo sapiens; details: Homo sapiens, Calu-3;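 further: growth inhibition of human Calu-3 cells, determined with a cell viability assay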
Description: SANGER: Inhibition of human Calu-3 cell growth in a cell viability assay.

[5] = tested on: DBTRG-05MG; assay type: functional, cell-based, Homo sapiens; details: Homo sapiens, DBTRG-05MG;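 further: cell viability assay measuring growth inhibition of human DBTRG-05MG cells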
Description: SANGER: Inhibition of human DBTRG-05MG cell growth in a cell viability assay.

[6] = tested on: DoTc2-4510; assay type: functional, cell-based, Homo sapiens; details: Homo sapiens, DoTc2-4510
[7] = tested on: GR-ST; assay type: functional, cell-based; details: Homo sapiens
Description: SANGER: Inhibition of human GR-ST cell growth in a cell viability assay.

[8] = tested on: HCE-4; assay type: functional, cell-based, Homo sapiens; details: Homo sapiens, HCE-4;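 further: cell viability assay measuring inhibition of growth in the human HCE-4 cell line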
Description: SANGER: Inhibition of human HCE-4 cell growth in a cell viability assay.

[9] = tested on: HT-29; assay type: functional, cell-based, Homo sapiens; details: Homo sapiens, HT-29;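 further: growth inhibition of human HT-29 cells, read out by a cell viability assay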
Description: SANGER: Inhibition of human HT-29 cell growth in a cell viability assay.

[10] = tested on: HTC-C3; assay type: functional, cell-based, Homo sapiens; details: Homo sapiens, HTC-C3;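 further: inhibition of cell growth, read out with a cell viability assay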
Description: SANGER: Inhibition of human HTC-C3 cell growth in a cell viability assay.

[11] = tested on: K562; assay type: functional, cell-based; details: Homo sapiens
Description: SANGER: Inhibition of human K-562 cell growth in a cell viability assay.

[12] = tested on: KARPAS-45; assay type: functional, cell-based; details: Homo sapiens;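 further: inhibition of cell line growth, read out through a viability assay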
Description: SANGER: Inhibition of human KARPAS-45 cell growth in a cell viability assay.

[13] = tested on: KE-37; assay type: functional, cell-based; details: Homo sapiens;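 further: growth inhibition of KE-37 cells, read out with a cell viability assay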
Description: SANGER: Inhibition of human KE-37 cell growth in a cell viability assay.

[14] = tested on: KMOE-2; assay type: functional, cell-based; details: Homo sapiens;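 further: growth inhibition of human KMOE-2 cells, read out with a cell viability assay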
Description: SANGER: Inhibition of human KMOE-2 cell growth in a cell viability assay.

[15] = tested on: KU812 cell line; assay type: functional, cell-based; details: Homo sapiens;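 further: growth inhibition of KU812 cells, read out with a cell viability assay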
Description: SANGER: Inhibition of human KU812 cell growth in a cell viability assay.

[16] = tested on: LB2241-RCC; assay type: functional, cell-based, Homo sapiens; details: Homo sapiens, LB2241-RCC;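 further: cell viability assay measuring how strongly the cultured human renal carcinoma line is prevented from growing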
Description: SANGER: Inhibition of human LB2241-RCC cell growth in a cell viability assay.

[17] = tested on: LN-405; assay type: functional, cell-based, Homo sapiens; details: Homo sapiens, LN-405
Description: SANGER: Inhibition of human LN-405 cell growth in a cell viability assay.

[18] = tested on: M059J; assay type: functional, cell-based, Homo sapiens; details: Homo sapiens, M059J;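 further: growth inhibition of M059J cells, read out with a cell viability assay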
Description: SANGER: Inhibition of human M059J cell growth in a cell viability assay.

[19] = tested on: MC-IXC; assay type: functional, cell-based, Homo sapiens; details: Homo sapiens, MC-IXC;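 further: growth inhibition of MC-IXC cells, read out with a cell viability assay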
Description: SANGER: Inhibition of human MC-IXC cell growth in a cell viability assay.

[20] = tested on: MHH-NB-11; assay type: functional, cell-based, Homo sapiens; details: Homo sapiens, MHH-NB-11;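 further: growth inhibition of human MHH-NB-11 cells, read out by a cell viability assay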
Description: SANGER: Inhibition of human MHH-NB-11 cell growth in a cell viability assay.

[21] = tested on: MLMA; assay type: functional, cell-based, Homo sapiens; details: Homo sapiens, MLMA;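 further: growth inhibition of MLMA cells (human), determined through a cell viability readout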
Description: SANGER: Inhibition of human MLMA cell growth in a cell viability assay.

[22] = tested on: MPP-89; assay type: functional, cell-based, Homo sapiens; details: Homo sapiens, MPP-89;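 further: growth inhibition of human MPP-89 cells, read out with a cell viability assay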
Description: SANGER: Inhibition of human MPP-89 cell growth in a cell viability assay.

[23] = tested on: MZ1-PC; assay type: functional, cell-based, Homo sapiens; details: Homo sapiens, MZ1-PC;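 further: cell viability assay measuring growth inhibition of human MZ1-PC cells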
Description: SANGER: Inhibition of human MZ1-PC cell growth in a cell viability assay.

[24] = tested on: NCI-H1792; assay type: functional, cell-based, Homo sapiens; details: Homo sapiens, NCI-H1792;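 further: growth inhibition of human NCI-H1792 cells, read out as cell viability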
Description: SANGER: Inhibition of human NCI-H1792 cell growth in a cell viability assay.

[25] = tested on: NCI-H23; assay type: functional, cell-based, Homo sapiens; details: Homo sapiens, NCI-H23;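 further: cell viability assay measuring growth inhibition of NCI-H23 cells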
Description: SANGER: Inhibition of human NCI-H23 cell growth in a cell viability assay.

[26] = tested on: NCI-H2452; assay type: functional, cell-based, Homo sapiens; details: Homo sapiens, NCI-H2452;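 further: growth inhibition of NCI-H2452 cells, read out with a cell viability assay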
Description: SANGER: Inhibition of human NCI-H2452 cell growth in a cell viability assay.

[27] = tested on: NCI-H650; assay type: functional, cell-based, Homo sapiens; details: Homo sapiens, NCI-H650;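 further: growth inhibition of NCI-H650 cells, read out by a viability assay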
Description: SANGER: Inhibition of human NCI-H650 cell growth in a cell viability assay.

[28] = tested on: NH-12; assay type: functional, cell-based, Homo sapiens; details: Homo sapiens, NH-12;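 further: growth inhibition of NH-12 cells, read out with a cell viability assay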
Description: SANGER: Inhibition of human NH-12 cell growth in a cell viability assay.

[29] = tested on: NMC-G1; assay type: functional, cell-based, Homo sapiens; details: Homo sapiens, NMC-G1;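 further: growth inhibition of the NMC-G1 cell line, measured with a cell viability read-out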
Description: SANGER: Inhibition of human NMC-G1 cell growth in a cell viability assay.

[30] = tested on: OE33; assay type: functional, cell-based, Homo sapiens; details: Homo sapiens, OE33;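 further: growth inhibition of human OE33 cells, measured by a cell viability assay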
Description: SANGER: Inhibition of human OE33 cell growth in a cell viability assay.

[31] = tested on: PC-14; assay type: functional, cell-based, Homo sapiens; details: Homo sapiens, PC-14;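 further: cell viability assay measuring inhibition of PC-14 cell growth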
Description: SANGER: Inhibition of human PC-14 cell growth in a cell viability assay.

[32] = tested on: SF-295; assay type: functional, cell-based, Homo sapiens; details: Homo sapiens, SF-295; read-out: IC50;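 further: growth inhibition of SF-295 cells, read out with a cell viability assay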
Description: SANGER: Inhibition of human SF295 cell growth in a cell viability assay.

[33] = tested on: SK-LU-1; assay type: functional, cell-based, Homo sapiens; details: Homo sapiens, SK-LU-1;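 further: cell viability assay measuring growth inhibition of human SK-LU-1 cells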
Description: SANGER: Inhibition of human SK-LU-1 cell growth in a cell viability assay.

[34] = tested on: SK-PN-DW; assay type: functional, cell-based; details: Homo sapiens;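 further: growth inhibition measured with a viability assay on these cells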
Description: SANGER: Inhibition of human SK-PN-DW cell growth in a cell viability assay.

[35] = tested on: SN12C; assay type: functional, cell-based, Homo sapiens; details: Homo sapiens, SN12C;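 further: growth inhibition of human SN12C cells, measured by a cell viability assay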
Description: SANGER: Inhibition of human SN12C cell growth in a cell viability assay.

[36] = tested on: SNU-C2B; assay type: functional, cell-based, Homo sapiens; details: Homo sapiens, SNU-C2B;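 further: cell viability readout used to measure compound-driven suppression of SNU-C2B cell proliferation, IC50 marking half-maximal growth inhibition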
Description: SANGER: Inhibition of human SNU-C2B cell growth in a cell viability assay.

[37] = tested on: SW13; assay type: functional, cell-based, Homo sapiens; details: Homo sapiens, SW13;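 further: IC50 is inhibition of SW13 cell growth, read out with a cell viability assay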
Description: SANGER: Inhibition of human SW13 cell growth in a cell viability assay.

[38] = tested on: SW684; assay type: functional, cell-based, Homo sapiens; details: Homo sapiens, SW684;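 further: growth inhibition of human SW684 cells, measured by a cell viability assay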
Description: SANGER: Inhibition of human SW684 cell growth in a cell viability assay.

[39] = tested on: SW837; assay type: functional, cell-based, Homo sapiens; details: Homo sapiens, SW837;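 further: growth inhibition of SW837 cells, determined with a cell viability assay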
Description: SANGER: Inhibition of human SW837 cell growth in a cell viability assay.

[40] = tested on: T98G; assay type: functional, cell-based, Homo sapiens; details: Homo sapiens, T98G;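 further: growth inhibition of T98G cells, read out by a cell viability assay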
Description: SANGER: Inhibition of human T98G cell growth in a cell viability assay.

[41] = tested on: TCC-SUP; assay type: functional, cell-based, Homo sapiens; details: Homo sapiens, TCC-SUP;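 further: growth inhibition of TCC-SUP cells, read out with a cell viability assay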
Description: SANGER: Inhibition of human TCCSUP cell growth in a cell viability assay.

[42] = tested on: TE-1; assay type: functional, cell-based, Homo sapiens; details: Homo sapiens, TE-1;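 further: growth inhibition of the human TE-1 cell line, read out with a cell viability assay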
Description: SANGER: Inhibition of human TE-1 cell growth in a cell viability assay.

[43] = tested on: 647-V; assay type: functional, cell-based, Homo sapiens; details: Homo sapiens, 647-V;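 further: growth inhibition of 647-V cells, read out with a cell viability assay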
Description: SANGER: Inhibition of human 647-V cell growth in a cell viability assay.

[44] = tested on: 8305C; assay type: functional, cell-based, Homo sapiens; details: Homo sapiens, 8305C
Description: SANGER: Inhibition of human 8305C cell growth in a cell viability assay.

[45] = tested on: 8505C; assay type: functional, cell-based, Homo sapiens; details: Homo sapiens, 8505C
Description: SANGER: Inhibition of human 8505C cell growth in a cell viability assay.

[46] = tested on: A 172; assay type: functional, cell-based, Homo sapiens; details: Homo sapiens, A 172;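 further: growth inhibition of A172 cells, measured with a cell viability readout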
[47] = tested on: A2058; assay type: functional, cell-based; details: Homo sapiens;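 further: reduction of A2058 cell growth, read out with a viability assay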
Description: SANGER: Inhibition of human A2058 cell growth in a cell viability assay.

[48] = tested on: BHT-101; assay type: functional, cell-based, Homo sapiens; details: Homo sapiens, BHT-101
[49] = tested on: CAL-39; assay type: functional, cell-based, Homo sapiens; details: Homo sapiens, CAL-39;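 further: cell viability assay measuring growth inhibition of CAL-39 cells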
Description: SANGER: Inhibition of human CAL-39 cell growth in a cell viability assay.

[50] = tested on: CAL-54; assay type: functional, cell-based, Homo sapiens; details: Homo sapiens, CAL-54;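 further: growth inhibition of CAL-54 cells, read out by a viability measurement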
Description: SANGER: Inhibition of human CAL-54 cell growth in a cell viability assay.

[51] = tested on: TGW; assay type: functional, cell-based; details: Homo sapiens;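 further: growth inhibition of human TGW cells, read out with a cell viability assay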
Description: SANGER: Inhibition of human TGW cell growth in a cell viability assay.

[52] = tested on: TK-10; assay type: functional, cell-based, Homo sapiens; details: Homo sapiens, TK-10;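 further: growth inhibition of TK-10 cells, read out in a cell viability assay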
Description: SANGER: Inhibition of human TK10 cell growth in a cell viability assay.

Measured: IC50

Cc1ccc(Nc2nccc(N(C)c3ccc4c(C)n(C)nc4c3)n2)cc1S(N)(=O)=O [PAZOPANIB]
5380 nM: [15]
1120 nM: [19]
3280 nM: [50]
3190 nM: [33]
3740 nM: [46]
6550 nM: [29]
6210 nM: [2]
> 8000 nM: all other assays above

Cc1cnc(-c2cnc(NCCNc3ccc(C#N)cn3)nc2-c2ccc(Cl)cc2Cl)[nH]1 [LADUVIGLUSIB]
> 2560 nM: all assays above

COc1cc([C@@H]2c3cc4c(cc3[C@@H](O[C@@H]3O[C@@H]5CO[C@@H](C)O[C@H]5[C@H](O)[C@H]3O)[C@H]3COC(=O)[C@H]23)OCO4)cc(OC)c1O [ETOPOSIDE]
364 nM: [18]
425 nM: [47]
8820 nM: [40]
1880 nM: [35]
2320 nM: [44]
1660 nM: [32]
115 nM: [19]
2330 nM: [3]
9720 nM: [31]
3380 nM: [21]
811 nM: [23]
2030 nM: [15]
342 nM: [34]
8650 nM: [46]
5120 nM: [30]
672 nM: [28]
11600 nM: [41]
1770 nM: [1]
801 nM: [8]
410 nM: [2]
13200 nM: [25]
1980 nM: [9]
4640 nM: [49]
1290 nM: [33]
7490 nM: [52]
40.7 nM: [13]
3110 nM: [48]
487 nM: [43]
8040 nM: [14]
693 nM: [45]
6690 nM: [7]
8920 nM: [50]
1800 nM: [37]
2630 nM: [5]
524 nM: [20]
1710 nM: [27]
496 nM: [4]
3320 nM: [29]
1050 nM: [6]
> 16000 nM: all other assays above
